Measured values taken from PubChem BioAssay (NCI).
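GI50 marks 50% less growth. TGI denotes the concentration required for complete inhibition of growth.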

How the values were obtained:
Assay in all cases: NCI anticancer screen, dose series, 384-well format
MDA-MB-468 breast = system: MDA-MB-468 breast
CAKI-1 renal = system: CAKI-1 renal
NCI-H460 NSCLC = system: NCI-H460 NSCLC
SK-OV-3 ovarian = system: SK-OV-3 ovarian
HOP-92 NSCLC = system: HOP-92 NSCLC
SF-539 CNS = system: SF-539 CNS
DU-145 prostate = system: DU-145 prostate
M14 melanoma = system: M14 melanoma
MALME-3M melanoma = system: MALME-3M melanoma
SR leukemia = system: SR leukemia
OVCAR-8 ovarian = system: OVCAR-8 ovarian
RPMI-8226 leukemia = system: RPMI-8226 leukemia
UACC-62 melanoma = system: UACC-62 melanoma

## CC1(N)CCN(c2cccnc2NC(=O)c2nc(-c3ncccc3C(F)(F)F)cnc2N)CC1
MDA-MB-468 breast
  GI50: 13.6 µM
  TGI: 28.2 µM
CAKI-1 renal
  GI50: 6.11 µM
  TGI: 24.2 µM
NCI-H460 NSCLC
  GI50: 17.6 µM
  TGI: 32.4 µM
SK-OV-3 ovarian
  GI50: 17.8 µM
  TGI: 38.6 µM
HOP-92 NSCLC
  GI50: 20.4 µM
  TGI: 57.6 µM
SF-539 CNS
  GI50: 24 µM
  TGI: > 51.2 µM
DU-145 prostate
  GI50: 19.3 µM
  TGI: > 58.8 µM
M14 melanoma
  GI50: 20.3 µM
  TGI: 40.3 µM
MALME-3M melanoma
  GI50: 14.8 µM
  TGI: 28.1 µM
SR leukemia
  GI50: 9.47 µM
  TGI: 21.5 µM
OVCAR-8 ovarian
  GI50: 30.9 µM
  TGI: > 70.5 µM
RPMI-8226 leukemia
  GI50: 10.4 µM
  TGI: 32.8 µM
UACC-62 melanoma
  GI50: 19.4 µM
  TGI: > 53.4 µM
